{"source": "patent US20240335377A1", "about": "“COMPOSITION AND METHODS OF TREATMENT USING TRANSDERMAL SUPPLEMENTATION” (Xygenyx Inc., priority 2023, published 2024)", "origin": "cited, not measured here", "key": {"skin [1]": {"test_system": "skin", "conditions": "topical, concentrations 0.5-5%"}, "markers of inflammation": {"test_system": "markers of inflammation", "conditions": "supplementation, individuals with metabolic syndrome"}, "[2]": {"conditions": "α-tocopherol taken as 1.0"}, "skin [3]": {"test_system": "skin", "conditions": "single penetration enhancer"}, "rheumatoid arthritis": {"test_system": "rheumatoid arthritis", "conditions": "rheumatoid arthritis study"}, "F2-isoprostane": {"test_system": "F2-isoprostane", "conditions": "large doses of 1600-3200 IU/day"}, "[4]": {"conditions": "dietary supplementation, doses up to 400 IU/day"}, "[5]": {"conditions": "in vivo"}, "[6]": {"conditions": "even when dietary intake occurs in equal portions"}, "skin [7]": {"test_system": "skin", "conditions": "topical formulations, within four weeks of treatment"}, "[8]": {"test_system": "wide dynamic range neurons in the ventroposterolateral nucleus of the thalamus"}}, "note": "Where a SMILES comes first, the peptide text is derived from it. [ ]: non-standard residue; d: D form. Cit = NC(=O)NCCC[C@H](N)C(=O)O"}
{"compound": "C/C(=C\\CO)CCC[C@H](C)CCC[C@H](C)CCCC(C)C", "note": "[phytol, Phytol]", "values": [{"measurement": "solubility in water", "result": "nearly insoluble in water"}]}
{"compound": "C=CCCCCCCCCC(=O)N[C@@H](Cc1ccccc1)C(=O)O", "note": "[UP, Undecylenoyl phenylalanine]", "values": [{"measurement": "time to skin lightening effects", "setting": "skin [1]", "result": "≥ 7", "unit": "days"}]}
{"compound": "Cc1cc(O)cc2c1OC(C)(CCCC(C)CCCC(C)CCCC(C)C)CC2", "note": "(stereo not shown) [δ-tocopherol]", "values": [{"measurement": "markers of inflammation in the blood", "setting": "markers of inflammation", "result": "reduced markers of inflammation"}, {"measurement": "relative biological activity", "setting": "[2]", "result": 0.03}]}
{"compound": "CC12CCC(CC1)C(C)(C)O2", "note": "[eucalyptol, Eucalyptol]", "values": [{"measurement": "increase of transdermal drug uptake (factor)", "setting": "skin [3]", "result": "more than 10"}]}
{"compound": "C=C1CC/C=C(\\C)CC[C@@H]2[C@@H]1CC2(C)C", "note": "[β-caryophyllene]", "values": [{"measurement": "swelling of joints and lymph nodes, circulating and articular leukocytes", "setting": "rheumatoid arthritis", "result": "reduced swelling of joints and lymph nodes as well as the number of circulating and articular leukocytes"}]}
{"compound": "CC1CCC(C(C)C)C(O)C1", "note": "(stereo not shown) [Menthol]", "values": [{"measurement": "increase of transdermal drug uptake (factor)", "setting": "skin [3]", "result": "≥ 10"}]}
{"compound": "Cc1c(C)c2c(c(C)c1O)CCC(C)(CCCC(C)CCCC(C)CCCC(C)C)O2", "note": "(stereo not drawn) [α-tocopherol]", "values": [{"measurement": "blood plasma concentration of F2-isoprostane", "setting": "F2-isoprostane", "result": "significantly lower"}, {"measurement": "reduction of risk of coronary disease", "setting": "[4]", "result": "up to 34%"}, {"measurement": "reduction of risk of developing neurodegenerative diseases such as Alzheimer's Syndrome or dementia", "setting": "[4]; controlled trials", "result": "≤ 24", "unit": "%"}]}
{"compound": "HGH: hormone comprising a peptide chain that is synthesized in the pituitary gland", "values": [{"measurement": "biological half-life", "setting": "[5]", "result": "10-20 minutes"}]}
{"compound": "Cc1c(O)cc2c(c1C)OC(C)(CCCC(C)CCCC(C)CCCC(C)C)CC2", "note": "(stereo not shown) [γ-tocopherol]", "values": [{"measurement": "relative biological activity", "setting": "[2]", "result": 0.1}, {"measurement": "concentration in vivo relative to α-tocopherol", "setting": "[6]", "result": "roughly 10%"}]}
{"compound": "CC[C@H](C)[C@H](NC(=O)[C@H](CC(=O)O)NC(=O)[C@@H](N)CCCCN)C(=O)N[C@@H](CCCNC(N)=O)C(N)=O", "note": "[tripeptide-10 citrulline, Tripeptide-10 citrulline] (H-KDI[Cit]-NH2)", "values": [{"measurement": "improvement of suppleness", "setting": "skin [7]", "result": "≤ 54", "unit": "%"}]}
{"compound": "Cc1cc(O)c(C)c2c1OC(C)(CCCC(C)CCCC(C)CCCC(C)C)CC2", "note": "(stereo not drawn) [β-tocopherol]", "values": [{"measurement": "relative biological activity", "setting": "[2]", "result": 0.5}]}
{"compound": "CCCCCc1cc(O)c2c(c1)OC(C)(C)[C@@H]1CCC(C)=C[C@@H]21", "note": "[THC, Δ-9-tetrahydrocannabinol]", "values": [{"measurement": "power in mediating pain relative to morphine", "setting": "[8]", "result": "ten times more powerful than morphine"}]}
